The source of these data is patent US8815809B2, “Cysteine protease inhibitors” (Medivir UK Ltd, priority 2009, dated 2014).

What all share (format): biochemical
One experiment concerns the target T1, cathepsin K (Homo sapiens, UniProt P43235).
T1 construct: made in house; host or cells: not fixed: E. coli, Pichia or Baculovirus systems are named as options
T1 sequence (P43235 115-329): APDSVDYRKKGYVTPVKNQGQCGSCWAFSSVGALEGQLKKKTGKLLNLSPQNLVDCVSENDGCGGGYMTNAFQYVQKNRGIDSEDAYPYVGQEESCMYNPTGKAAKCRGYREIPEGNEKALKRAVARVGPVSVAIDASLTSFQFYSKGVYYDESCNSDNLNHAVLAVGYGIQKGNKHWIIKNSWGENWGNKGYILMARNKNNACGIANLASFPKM
The experiment in a line: Determination of cathepsin K proteolytic catalytic activity (Ki). Particulars: human recombinant enzyme, H-D-Ala-Leu-Lys-AMC substrate; read-out: Ki Cat. K. As to the method: Convenient assays for cathepsin K are carried out using human recombinant enzyme, such as that described in PDB.
The recombinant cathepsin K can be expressed in a variety of commercially available expression systems including E. coli, Pichia and Baculovirus systems. The purified enzyme is activated by removal of the prosequence by conventional methods.
Standard assay conditions for the determination of kinetic constants used a fluorogenic peptide substrate, typically H-D-Ala-Leu-Lys-AMC, and were determined in either 100 mM Mes/Tris, pH 7.0 containing 1 mM EDTA and 10 mM 2-mercaptoethanol or 100 mM Na phosphate, imM EDTA, 0.1% PEG4000 pH 6.5 or 100 mM Na acetate, pH 5.5 containing 5 mM EDTA and 20 mM cysteine, in each case optionally with […] as stabiliser. The enzyme concentration used was 5 nM. The stock substrate solution was prepared at 10 mM in DMSO. Screens were carried out at a fixed substrate concentration of 60 μM and detailed kinetic studies with doubling dilutions of substrate from 250 μM. The total DMSO concentration in the assay was kept below 3%. All assays were conducted at ambient temperature. Product fluorescence (excitation at 390 nm, emission at 460 nm) was monitored with a Labsystems Fluoroskan Ascent fluorescent plate reader. Product progress curves were generated over 15 minutes following generation of AMC product.
(§1) Potential inhibitors are screened using the above assay with variable concentrations of test compound. Reactions were initiated by addition of enzyme to buffered solutions of substrate and inhibitor. Ki values were calculated according to equation 1.
(§2) [formula] where v0 is the velocity of the reaction, V is the maximal velocity, S is the concentration of substrate with Michaelis constant of KM, and I is the concentration of inhibitor.

The target of a further experiment is human cathepsin L (Homo sapiens, UniProt P07711). The experiment in a line: Cathepsin L Ki. Particulars: H-D-Val-Leu-Lys-AMC substrate, pH 5.5, read-out: Ki Cat. L. As to the method:
The procedure above with the following amendments is used for the determination of Ki for cathepsin L.
The enzyme is commercially available human cathepsin L (for example Calbiochem). The substrate is H-D-Val-Leu-Lys-AMC available from Bahcem. The assay buffer is 100 mM sodium acetate 1 mM EDTA, pH5.5) The DMSO stock (10 mM in 100% DMSO) is diluted to 10% in assay buffer. Enzyme is prepared at 5 nM concentration in assay buffer plus 1 mM dithiothreitol just before use. 2 μL of 10 mM inhibitor made up in 100% DMSO is dispensed into row A. 10 μL of 50 μM substrate (=1/200 dilution of 10 mM stock in DMSO, diluted in assay buffer).
as §1, §2

The next experiment concerns the target T2, human cathepsin S (Homo sapiens, UniProt P25774).
T2 construct: made in house; host or cells: baculovirus expression system
The experiment in a line: Cathepsin S Ki determination. Particulars: baculovirus-expressed human cathepsin S, boc-Val-Leu-Lys-AMC substrate, pH 6.5; read-out: Ki Cat. S. As to the method:
The assay uses baculovirus-expressed human cathepsin S and the boc-Val-Leu-Lys-AMC fluorescent substrate available from Bachem in a 384 well plate format, in which 7 test compounds can be tested in parallel with a positive control comprising a known cathepsin S inhibitor comparator.
280 μL/well of 12.5% DMSO are added to rows B-H of two columns of a 96 deep well polypropylene plate. 70 μL/well of substrate is added to row A. 2×250 μL/well of assay buffer (100 mM Na phosphate, 100 mM NaCl, pH 6.5) is added to row A, mixed, and double diluted down the plate to row H.
100 μL/well of assay buffer is added to columns 2-5 and 7-12 of 4 rows of a 96 well V bottom polypropylene plate. 200 μL/well of assay buffer is added to columns 1 and 6.
The first test compound prepared in DMSO is added to column 1 of the top row, typically at a volume to provide between 10 and 30 times the initially determined rough K1. The rough K, is calculated from a preliminary run in which 10 μL/well of 1 mM boc-VLK-AMC (1/10 dilution of 10 mM stock in DMSO diluted into assay buffer) is dispensed to rows B to H and 20 μl/well to row A of a 96 well Microfluor™ plate. 2 μl of each 10 mM test compound is added to a separate well on row A, columns 1-10. Add 90 μl assay buffer containing 1 mM DTT and 2 nM cathepsin S to each well of rows B-H and 180 μl to row A. Mix row A using a multichannel pipette and double dilute to row G. Mix row H and read in the fluorescent spectrophotometer.
The second test compound is added to column 6 of the top row, the third to column 1 of the second row etc. Add 1 μL of comparator to column 6 of the bottom row. Mix column 1 and double dilute to column 5. Mix column 6 and double dilute to column 10.
Using an 8-channel multistepping pipette set to 5×10 μL, distribute 10 μL/well of substrate to the 384 well assay plate. Distribute the first column of the substrate dilution plate to all columns of the assay plate starting at row A. The tip spacing of the multichannel pipette will correctly skip alternate rows. Distribute the second column to all columns starting at row B.
Using a 12-channel multistepping pipette set to 4×10 μL, distribute 10 μL/well of inhibitor to the 384 well assay plate. Distribute the first row of the inhibitor dilution plate to alternate rows of the assay plate starting at A1. The tip spacing of the multichannel pipette will correctly skip alternate columns. Similarly, distribute the second, third and fourth rows to alternate rows and columns starting at A2, B1 and B2 respectively.
Mix 20 mL assay buffer and 20 μL 1M DTT. Add sufficient cathepsin S to give 2 nM final concentration.
Using the a distributor such as a Multidrop 384, add 30 μL/well to all wells of the assay plate and read in fluorescent spectrophotometer such as an Ascent.
Fluorescent readings, (excitation and emission wavelengths 390 nm and 460 nm respectively, set using bandpass filters) reflecting the extent of enzyme cleavage of the fluorescent substrate, […] the inhibitor, are linear rate fitted for each well.
Fitted rates for all wells for each inhibitor are fitted to the competitive inhibition equation using SigmaPlot 2000 to determine V, Km and Ki values.
as §1, §2

Each structure is given as a SMILES string. Some results are limits rather than exact numbers.

T2 sequence (P25774 115-331): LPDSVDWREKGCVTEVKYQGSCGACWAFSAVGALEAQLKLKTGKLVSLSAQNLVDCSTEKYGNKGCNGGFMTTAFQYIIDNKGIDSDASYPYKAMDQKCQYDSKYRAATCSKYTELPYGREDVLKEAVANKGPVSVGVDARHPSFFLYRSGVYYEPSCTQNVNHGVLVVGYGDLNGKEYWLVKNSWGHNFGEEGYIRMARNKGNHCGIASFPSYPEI
human cathepsin L, sequence (P07711 114-333): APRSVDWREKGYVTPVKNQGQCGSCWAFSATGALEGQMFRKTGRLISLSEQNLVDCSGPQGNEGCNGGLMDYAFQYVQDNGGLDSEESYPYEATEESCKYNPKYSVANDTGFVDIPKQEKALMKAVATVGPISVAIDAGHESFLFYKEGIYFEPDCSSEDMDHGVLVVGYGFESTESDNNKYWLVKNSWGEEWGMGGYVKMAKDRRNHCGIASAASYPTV

Usually Ki stands for the equilibrium dissociation constant of an inhibitor or competing ligand from its target. With `COC1CC(NC(=O)[C@H](CC2(F)CCCC2)NC(=O)OC(C)(C)C)(C(=O)C(=O)Nc2ccn(C)n2)C1` (single isomer, unassigned) [Example 73, {2-(1-Fluoro-cyclopentyl)-1-[3-methoxy-1-(1-methyl-1H-pyrazol-3-ylaminooxalyl)-cyclobutylcarbamoyl]-ethyl}-carbamic acid tert-butyl ester], the values for the Ki at cathepsin K, at human cathepsin L and at human cathepsin S were 250 nM, 1100 nM and 0.8 nM, respectively.

Consider `COC(=O)N[C@@H](CC1(C)CCCC1)C(=O)N[C@]1(C(=O)C(=O)Nc2ccn(C)n2)C[C@@H](F)C1` [Example 1], for which the Ki amounted to 1100 nM on cathepsin K, 4800 nM on human cathepsin L and 3.6 nM on human cathepsin S.

With `CCOC(=O)NC(CC(C)(C)C)C(=O)NC1(C(=O)C(=O)Nc2ccn(C)n2)CC(F)C1` (stereo not drawn) [Example 4], the figures for the Ki on cathepsin K, on human cathepsin L and at human cathepsin S were 430 nM, 3300 nM and 11 nM, respectively.

Take `CCOC(=O)NC(CC1(C)CCCC1)C(=O)NC1(C(=O)C(=O)Nc2ccn(C)n2)CC(F)C1` (stereo not drawn) [Example 8]: the inhibition constant (Ki) at cathepsin K was found to be 1200 nM; on human cathepsin L it was 3300 nM; at human cathepsin S, 1 nM.

On to `Cn1ccc(NC(=O)C(=O)C2(NC(=O)[C@H](CC3(F)CCCC3)NC(=O)OC(C)(C)C)CC(F)(F)C2)n1` [Example 10], for which the results for the Ki on cathepsin K, at human cathepsin L and at human cathepsin S were 170 nM, 360 nM and 0.55 nM, respectively.

Regarding `Cn1cnc(NC(=O)C(=O)C2(NC(=O)[C@H](CC3(C)CCCC3)NC(=O)OC(C)(C)C)CCC2)c1` [Example 11], the values for the Ki at cathepsin K, at human cathepsin L and on human cathepsin S were 610 nM, 1100 nM and 1 nM, respectively.

As for `Cn1ccc(NC(=O)C(=O)C2(NC(=O)C(CC3(C)CCC3)NC(=O)OC(C)(C)C)CC(F)C2)n1` (stereo not drawn) [Example 19], the Ki at cathepsin K worked out at 150 nM; at human cathepsin L, 330 nM; at human cathepsin S it was 4.7 nM.

`Cc1csc(NC(=O)C(=O)C2(NC(=O)[C@H](CC3(C)CCCC3)NC(=O)OC(C)(C)C)CCC2)n1` [Example 20]: the Ki at cathepsin K was 95000 nM; at human cathepsin L, above 200000 nM; at human cathepsin S, 30 nM.

`CC(C)(C)OC(=O)N[C@@H](CC1(F)CCCC1)C(=O)NC1(C(=O)C(=O)NC2CC2)CC(F)C1` (stereo partly drawn) [Example 22]: the Ki on cathepsin K was found to be 3800 nM; at human cathepsin L, 25000 nM; at human cathepsin S it was 14 nM.

As for `CC1(C[C@H](NC(=O)OC(C)(C)C)C(=O)NC2(C(=O)C(=O)NC3CC3)CCC2)CCCC1` [Example 24], the Ki came to 4400 nM at cathepsin K, 10000 nM on human cathepsin L and 7.8 nM on human cathepsin S.

As for `CC(C)OC(=O)NC(CC1(F)CCCC1)C(=O)NC1(C(=O)C(=O)Nc2ccn(C)n2)CC(F)C1` (stereo not drawn) [Example 31], the Ki at cathepsin K amounted to 410 nM; at human cathepsin L, 1200 nM; at human cathepsin S, 1.8 nM.

For the compound `Cn1ccc(NC(=O)C(=O)C2(NC(=O)C(CC3CCCC3)NC(=O)OC(C)(C)C)CC(F)C2)n1` (stereo not drawn) [Example 45], the Ki at cathepsin K was 1100 nM; on human cathepsin L, 850 nM; at human cathepsin S it was 6 nM.

Consider `COC1CC(NC(=O)[C@H](CC2(F)CCCC2)NC(=O)OC(C)(C)C)(C(=O)C(=O)Nc2ccn(C)n2)C1` (stereo partly drawn) [Example 49], for which the Ki came out at 240 nM on cathepsin K, 660 nM at human cathepsin L and 0.65 nM at human cathepsin S.

Consider `[2H]C([2H])([2H])n1ccc(NC(=O)C(=O)C2(NC(=O)C(CC3(F)CCCC3)NC(=O)OC(C)(C)C)CC(F)C2)n1` (stereo not drawn) [Example 50], for which the Ki worked out at 100 nM at cathepsin K, 560 nM on human cathepsin L and 0.65 nM on human cathepsin S.

In the case of `Cn1ccc(NC(=O)C(=O)C2(NC(=O)[C@H](CC3(F)CCCC3)NC(=O)OC(C)(C)C)CCC2)n1` [Example 52], the inhibition constant (Ki) on cathepsin K amounted to 98 nM; on human cathepsin L, 270 nM; on human cathepsin S it was 0.4 nM.

Take `CC(CF)OC(=O)NC(CC1(F)CCCC1)C(=O)NC1(C(=O)C(=O)Nc2ccn(C)n2)CCC1` (stereo not drawn) [Example 56, {2-(1-Fluoro-cyclopentyl)-1-[1-(1-methyl-1H-pyrazol-3-ylaminooxalyl)-cyclobutylcarbamoyl]-ethyl}-carbamic acid 2-fluoro-1-methyl-ethyl ester]: the Ki on cathepsin K is 440 nM; on human cathepsin L, 990 nM; on human cathepsin S, 1.8 nM.

On to `CC(C)(C)OC(=O)N[C@@H](CC1(F)CCCC1)C(=O)NC1(C(=O)C(=O)Nc2cc[nH]n2)CCC1` [Example 57, {2-(1-Fluoro-cyclopentyl)-1-[1-(1H-pyrazol-3-ylaminooxalyl)-cyclobutylcarbamoyl]-ethyl}-carbamic acid tert-butyl ester], for which the Ki at cathepsin K turned out to be 290 nM; on human cathepsin L it was 720 nM; on human cathepsin S, 0.79 nM.

For `Cn1ccc(NC(=O)C(=O)C2(NC(=O)[C@H](CC3(F)CCCC3)NC(=O)OC3COC3)CCC2)n1` [Example 59, {2-(1-Fluoro-cyclopentyl)-1-[1-(1-methyl-1H-pyrazol-3-ylaminooxalyl)-cyclobutylcarbamoyl]-ethyl}-carbamic acid oxetan-3-yl ester], the inhibition constant (Ki) at cathepsin K is 340 nM; on human cathepsin L, 2100 nM; at human cathepsin S, 2.2 nM.

Take `CCOC(=O)N[C@@H](CC1(F)CCCC1)C(=O)NC1(C(=O)C(=O)NCCCN2CCN(C)CC2)CCC1` [Example 63]: the Ki at cathepsin K amounted to 1400 nM; at human cathepsin L, 4900 nM; on human cathepsin S, 22 nM.

Consider `CCOC(=O)NC(CC1(F)CCCC1)C(=O)NC1(C(=O)C(=O)Nc2ccn(C)n2)CC(OC)C1` (stereo not drawn) [Example 68], for which the Ki on cathepsin K was found to be 640 nM; on human cathepsin L, 2400 nM; at human cathepsin S it was 1.1 nM.

Regarding `CCOC(=O)NC(CC1(C)CCCC1)C(=O)NC1(C(=O)C(=O)Nc2ccn(C)n2)CC(OC)C1` (stereo not drawn) [Example 70], the Ki on cathepsin K turned out to be 1400 nM; at human cathepsin L it was 2100 nM; at human cathepsin S it was 0.7 nM.
